PubChem BioAssay (NCI)
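Step 1: Grow cells in 96-well plates. Step 2: Expose to compound for 48 hours at 5 concentrations. Step 3: Interpolate endpoints linearly; if unreached, use highest concentration. At the TGI there is no net growth.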

How the values were obtained:
Assay in all cases: NCI-60 cell line screen, 48 h
786-0 renal = tested on: 786-0 renal
ACHN renal = tested on: ACHN renal
CAKI-1 renal = tested on: CAKI-1 renal
CCRF-CEM leukemia = tested on: CCRF-CEM leukemia
DU-145 prostate = tested on: DU-145 prostate
HCC-2998 colon = tested on: HCC-2998 colon
HOP-92 NSCLC = tested on: HOP-92 NSCLC
K-562 leukemia = tested on: K-562 leukemia
MDA-MB-231 breast = tested on: MDA-MB-231 breast
MDA-N = tested on: MDA-N
NCI-H460 lung = tested on: NCI-H460 lung
NCI-H522 lung = tested on: NCI-H522 lung
SK-MEL-5 melanoma = tested on: SK-MEL-5 melanoma
TK-10 renal = tested on: TK-10 renal
COLO 205 colon = tested on: COLO 205 colon
OVCAR-8 ovarian = tested on: OVCAR-8 ovarian
T-47D breast = tested on: T-47D breast
HS 578T breast = tested on: HS 578T breast
SF-539 CNS = tested on: SF-539 CNS
SNB-75 CNS = tested on: SNB-75 CNS

| Compound | TGI (786-0 renal) | TGI (ACHN renal) | TGI (CAKI-1 renal) | TGI (CCRF-CEM leukemia) | TGI (DU-145 prostate) | TGI (HCC-2998 colon) | TGI (HOP-92 NSCLC) | TGI (K-562 leukemia) | TGI (MDA-MB-231 breast) | TGI (MDA-N) | TGI (NCI-H460 lung) | TGI (NCI-H522 lung) | TGI (SK-MEL-5 melanoma) | TGI (TK-10 renal) | TGI (COLO 205 colon) | TGI (OVCAR-8 ovarian) | TGI (T-47D breast) | TGI (HS 578T breast) | TGI (SF-539 CNS) | TGI (SNB-75 CNS) |
| --- | --- | --- | --- | --- | --- | --- | --- | --- | --- | --- | --- | --- | --- | --- | --- | --- | --- | --- | --- | --- |
| CC(=O)O/C=C1/C[C@H]2[C@@H]3CCC4CC(C(C)=O)CC[C@]4(C)[C@H]3CC[C@]2(C)C1=O (some centres not stated) | > 100 µM | > 100 µM | > 100 µM | > 100 µM | > 100 µM | > 100 µM | > 100 µM | > 100 µM | > 100 µM | > 100 µM | > 100 µM | > 100 µM | > 100 µM | > 100 µM |  |  |  |  |  |  |
| CC(NO)/C(=N/O)c1ccco1 (configuration not stated) | > 10 µM | > 10 µM | > 10 µM | > 10 µM | > 10 µM | > 10 µM | > 10 µM | > 10 µM | > 10 µM | > 10 µM | > 10 µM | > 10 µM |  | > 10 µM | > 10 µM | > 10 µM | > 10 µM |  |  |  |
| Cc1c(CCN2CCOCC2)c(N2CCOCC2)n2c(nc3ccccc32)c1C#N | > 10 µM | > 10 µM | > 10 µM | > 10 µM | > 10 µM |  | > 10 µM | > 10 µM | > 10 µM | > 10 µM | > 10 µM |  | > 10 µM | > 10 µM | > 10 µM | > 10 µM | > 10 µM | > 10 µM | > 10 µM | > 10 µM |
| CCC(C(=O)C(=O)C(CC)P1(=O)OC(C)(C)CN1C(C)(C)C)P1(=O)OC(C)(C)CN1C(C)(C)C (configuration not stated) | > 100 µM | > 100 µM | > 100 µM | > 100 µM | > 100 µM | > 100 µM | > 100 µM | > 100 µM | > 100 µM |  | > 100 µM | > 100 µM | > 100 µM | > 100 µM | > 100 µM | > 100 µM | > 100 µM | > 100 µM | > 100 µM | > 100 µM |
| CCCSc1ccc2[nH]c(/N=C/c3ccccc3)cc2c1 | 40.1 µM | > 100 µM | > 100 µM | 64.4 µM | > 100 µM |  | 76.9 µM | 38.8 µM |  | 62.6 µM |  | 46.2 µM | 20.4 µM |  | 44.5 µM | 56.2 µM | > 100 µM | 62.1 µM | 46.3 µM | > 100 µM |
| COc1cccc(C2c3cc4c(cc3OC(N3CCOCC3)C2C)OCO4)c1OC (configuration not stated) | 52.7 µM | 70.9 µM | 5.36 µM | 28.8 µM | 28.5 µM | 22.8 µM |  | 21.1 µM |  | 46.9 µM | 30.7 µM | 34.3 µM | 24.5 µM | > 100 µM | 28.2 µM | > 100 µM | 79.1 µM | 63.5 µM | 30.5 µM | 37.2 µM |
| COc1cccc2c1CCc1c(-c3ccc(F)cc3)cc(-c3ccc4ccccc4n3)nc1-2 | > 100 µM | > 100 µM | > 100 µM | > 100 µM |  |  | > 100 µM | > 100 µM | > 100 µM | > 100 µM | > 100 µM | > 100 µM | > 100 µM | > 100 µM | > 100 µM | > 100 µM | > 100 µM | > 100 µM | > 100 µM | > 100 µM |
| Nc1nc(N)c2cc(-c3ccccc3)cnc2n1 | 21.5 µM | 26.3 µM | 29.5 µM | 98.3 µM |  | > 100 µM | 30.1 µM | 17.7 µM | 20.4 µM | 25.4 µM | 24.3 µM | 44.9 µM | 27.3 µM | 29.9 µM | 27.3 µM | 57.4 µM | > 100 µM | 46.2 µM | 31.1 µM | 17.3 µM |
| COc1c(OC(C)C)c(OC(C)C)c2oc(=O)n3c2c1C(c1ccccc1-n1c(C)ccc1C)C=C3 (configuration not stated) | > 100 µM | > 100 µM | > 100 µM | > 100 µM | > 100 µM | > 100 µM | > 100 µM | > 100 µM | > 100 µM | > 100 µM | > 100 µM | > 100 µM | > 100 µM | > 100 µM | > 100 µM | > 100 µM |  | > 100 µM | > 100 µM | > 100 µM |
| Cn1c(=O)n2n(c1=O)C(S(=O)(=O)c1ccccc1)C2 (configuration not stated) | > 100 µM | > 100 µM | > 100 µM | > 100 µM | > 100 µM | > 100 µM | > 100 µM | > 100 µM | > 100 µM | > 100 µM | > 100 µM | > 100 µM | > 100 µM | > 100 µM | > 100 µM | > 100 µM |  | > 100 µM | > 100 µM | > 100 µM |
| Cc1cccc(C)c1NC(=O)C(=O)CC(=O)/C=C/c1ccccc1 | > 100 µM | > 100 µM | > 100 µM | > 100 µM |  | > 100 µM | > 100 µM | > 100 µM | > 100 µM | > 100 µM | > 100 µM | > 100 µM | > 100 µM | > 100 µM |  | > 100 µM | > 100 µM | > 100 µM | > 100 µM | > 100 µM |
| COc1cccc2c1CCc1cc3c(N)nc(N)nc3nc1-2 | 6.13 µM | 36.5 µM | 45.7 µM | 7.02 µM | 23.8 µM | 5.78 µM | 32.6 µM | > 21.4 µM | 15.9 µM | 18.1 µM | 25 µM | 10.8 µM | 10.2 µM | 47.3 µM | 29.8 µM | 21.7 µM | > 67.7 µM |  | 9.16 µM | 34.9 µM |
| C=CC1CCC[N+]1(CC(=O)OCC)Cc1ccccc1 (configuration not stated) | > 100 µM | > 100 µM |  | > 100 µM | > 100 µM | > 100 µM | > 100 µM | > 100 µM | > 100 µM | > 100 µM | > 100 µM |  | > 100 µM | > 100 µM | > 100 µM | > 100 µM | > 100 µM |  |  | > 100 µM |
| C1CCCCC2(CCCCCCCCC3(CCC1)OCCO3)OCCO2 | > 100 µM | > 100 µM | > 100 µM |  | > 100 µM | > 100 µM | > 100 µM | > 100 µM |  | > 100 µM | > 100 µM | > 100 µM | > 100 µM | > 100 µM | > 100 µM | > 100 µM | > 100 µM | > 100 µM | > 100 µM | > 100 µM |
| O=C(O)C1CCCCC1C(=O)Nn1cnnc1 (configuration not stated) | > 100 µM | > 100 µM |  | > 100 µM | > 100 µM | > 100 µM | > 100 µM | > 100 µM | > 100 µM | > 100 µM |  | > 100 µM | > 100 µM | > 100 µM | > 100 µM | > 100 µM |  |  | > 100 µM | > 100 µM |
| O=S(CC1(O)CCCCC1)c1ccccc1 (configuration not stated) | > 100 µM | > 100 µM | > 100 µM | > 100 µM | > 100 µM | > 100 µM |  | > 100 µM | > 100 µM |  | > 100 µM | > 100 µM | > 100 µM | > 100 µM | > 100 µM | > 100 µM | > 100 µM | > 100 µM |  | > 100 µM |
| Nc1c2ccccc2nc2ccc3c(=O)cc(-c4ccccc4)oc3c12 | 0.348 µM | 2.39 µM | 2.63 µM |  | 3.74 µM | 1.9 µM | 2.59 µM | 0.326 µM | 2.52 µM | 2.13 µM | 2.22 µM |  |  | 3.52 µM | 1.35 µM | 1.89 µM |  |  | 2.34 µM | 3.58 µM |
| COc1ccc(P2(=S)Oc3ccccc3-c3ccccc3O2)cc1 | > 100 µM | > 100 µM |  | > 100 µM | > 100 µM | 9.56 µM | 85.3 µM | > 100 µM | > 100 µM |  | > 100 µM |  | > 79.7 µM | > 100 µM | 2.77 µM | > 40.6 µM | > 100 µM | > 100 µM | 0.537 µM | > 100 µM |
| O=S(=O)(c1ccccc1)C(c1ccc2ccccc2n1)S(=O)(=O)c1ccccc1 | > 100 µM | > 100 µM | > 100 µM |  | > 100 µM | > 100 µM | > 100 µM | > 100 µM | > 100 µM | > 100 µM | > 100 µM | > 100 µM | > 100 µM | > 100 µM | > 100 µM | > 100 µM |  | > 100 µM | > 100 µM | > 100 µM |
| NC(=O)c1cc2ccc(O)cc2o/c1=N/NC(=O)c1ccccc1 | > 100 µM | > 100 µM | > 100 µM | > 100 µM |  | > 100 µM | > 100 µM | > 100 µM | > 100 µM | > 100 µM | > 100 µM | > 100 µM | > 100 µM | > 100 µM | > 100 µM | > 100 µM | 91.4 µM | > 100 µM |  | > 100 µM |
| Nc1nc(Cl)c(/C=N\O)c(NCC2(CO)CCC2)n1 | > 100 µM | > 100 µM | > 100 µM | > 100 µM | > 100 µM | > 100 µM | > 100 µM | > 100 µM | > 100 µM | > 100 µM | > 100 µM | > 100 µM | > 100 µM | > 100 µM | > 100 µM | > 100 µM |  | > 100 µM | > 100 µM | > 100 µM |
